In patent US12359238B2 (priority 2017, dated 2025):

Assays:
[1] = target: T1, FGM (FAD-GDH-MCD): Burkholderia cepacia FAD-GDH alpha subunit fused to minimal cytochrome domain MCR-2 of MamP (magnetoovoid bacterium MO-127), full DNA constru (Burkholderia lata, UniProt Q397F4); format: biochemical
T1 construct: gamma co-expressed; E. coli BL21

[2] = target: FGM-S247PCA: FGM (Burkholderia cepacia FAD-GDH-MCD) variant S247PrK (S247X, SEQ ID NO: 20), EDC-NHS coupled to PCA linker (Burkholderia lata, UniProt Q397F4); details: read-out: KM^app (electrochemical); glucose; 300 mV vs. Ag/AgCl, 100 mM acetate buffer pH=5.0, RT; non-linear fit
Protocol: (§1) The current from each glucose concentration (10 μM-10 mM) was measured in triplicates; curves of the mean currents are presented with standard deviations. […] The current was measured in triplicates and the mean current values were used for the linear regression and are presented with error bars (FIG. 18H);
(§2) Pyrrolysyl orthogonal translation system (pylOTS) DNA sequence was amplified from the pEVOL plasmid using polymerase chain reaction (PCR) and cloned into the backbone of pec86 plasmid using Gibson's assembly to generate a new plasmid called pec86-pylOTS (FIG. 15A). pylOTS allows the continuous expression of an orthogonal translation system (orthogonal tRNA and aminoacyl tRNA synthetase) for incorporation of PrK (1) using the amber (TAG) stop codon suppression, while the pec86 plasmid is responsible for the continuous expression of E. coli cytochrome c maturation system. […] Four different TAG mutants were planned using site-directed mutagenesis, according to GDH crystal structure. Our guiding rational for mutation sites was to control the enzyme orientation in a manner that will allow proximity of 14 Å or less between the FAD or heme site and the electrode, without interference with the protein structure and correct folding. The sites that were tested were R42TAG and S247TAG, which are in close proximity to the FAD binding-site, while T558TAG (FIG. 11C, right panel) is in a close proximity to the heme domain.
(§3) The azide in (2) was clicked to the alkyne residue of (FIG. 11B, 1). 3 μM of protein sample was mixed with 400 μM (2), 2 mM tris pH=8.2, 10 mM KCl, 1 mM Cu(I), 1.2 mM THPTA, 2.5 mM NaAsc and 10% Dimethyl sulfoxide (DMSO). The reaction was incubated for 1 h in the dark at room temperature with shaking, then transferred to 4° C. for two days before use.

[3] = target: FGM-S247PDAz: FGM (Burkholderia cepacia FAD-GDH-MCD) variant S247PrK (S247X, SEQ ID NO: 20), clicked to PDAz linker (Burkholderia lata, UniProt Q397F4); details: read-out: KM^app (electrochemical); glucose; 300 mV vs. Ag/AgCl, 100 mM acetate buffer pH=5.0, RT; non-linear fit
Protocol: as §1, §2, §3

[4] = tested on: FGM-T558PDAz: FGM (Burkholderia cepacia FAD-GDH-MCD) variant T558PrK (T558X, SEQ ID NO: 22), clicked to PDAz linker; details: read-out: KM^app (electrochemical); glucose; 300 mV vs. Ag/AgCl, 100 mM acetate buffer pH=5.0, RT; non-linear fit
Protocol: as §1, §2, §3

[5] = target: GDH-S247PDAz: Burkholderia cepacia FAD-GDH variant S247PrK lacking the MCD domain, clicked to PDAz linker (Burkholderia lata, UniProt Q397F4); details: read-out: KM^app (electrochemical); glucose; 300 mV vs. Ag/AgCl, 100 mM acetate buffer pH=5.0, RT; non-linear fit
Protocol: as §1, §2, §3

Structure (SMILES): OC[C@H]1OC(O)[C@H](O)[C@@H](O)[C@@H]1O (stereo partly drawn) [glucose]
- KM^app value times higher for FGM compared to GDH [1]: ca. 3 times
- catalytic efficiency (k) times higher compared to GDH ([1]; FGM compared to GDH, D-glucose): more than 3 times
- Km [2]: 1820 ± 180 µM
- Km [3]: 1890 ± 100 µM
- Km [4]: 1580 ± 220 µM
- Km [5]: 1550 ± 160 µM
